Laboratory results as given in article PMC5962642, “Dynamic imaging of adaptive stress response pathway activation for prediction of drug induced liver injury” (Archives of Toxicology, 2018).
“Also recorded” adds a separate entry of the source.

Experiments:
[1] = test system: Srxn1-GFP (oxidative stress); assay: HepG2 Srxn1-GFP BAC reporter, live cell confocal imaging (oxidative stress); assay type: cell-based, Human; conditions: for Srxn1-GFP reporter response: HepG2 BAC-GFP, 24 h live imaging, 1-100 C-max; for activation of Srxn1-GFP and/or CHOP-GFP (cluster 3): cluster description, reporter not resolved per drug (Srxn1-GFP and/or CHOP-GFP); for Srxn1-GFP response at the intensity feature level (cell population): GFP intensity over the single cell population
Description: (§1) Human hepatoma HepG2 cells were acquired from ATCC (clone HB8065). HepG2 Srxn1, DDIT3 (CHOP), CDKN1A (p21) and ICAM1 BAC GFP reporter cell lines were previously established and characterized (Wink et al. [2017]). HepG2 BAC GFP reporters were maintained and exposed to drugs in DMEM high glucose supplemented with 10% (v/v) FBS, 25 U/mL penicillin and 25 µg/mL streptomycin. The cell lines were used between passage 5 and 25. For live cell imaging, the cells were seeded in Greiner black µ-clear 384 wells plates, at 8000 cells per well.
Accumulation of GFP levels, propodium iodide (PI) and Hoechst staining was monitored using a Nikon TiE2000 confocal laser microscope (lasers 540, 488 and 408 nm), equipped with an automated stage and perfect focus system at 37 °C with humidified atmosphere and 5% CO2/air mixture. All imaging was similar as previously described^5. Each 384-well plate contained one reporter cell line, which was exposed to all the compounds used in the screen at one certain concentration (1, 5, 10, 50 or 100 Cmax); for each concentration at least two replicates were imaged per reporter cell line. For the ICAM1-GFP reporter experiments, cells were first exposed for 8 h to compound only; next, TNFα was added to all wells, up to a final concentration of 10 ng/mL. Directly after TNFα treatment the live cell imaging was started.
(§2) Quantitative image analysis was performed with CellProfiler version 2.1.1 (Kamentsky et al. [2011]) with an in house developed CellProfiler module implementing the watershed masked algorithm for segmentation (Yan and Verbeek [2012]; Wink et al. [2017]). Image analysis results were stored as HDF5 files. Data analysis, quality control and graphics were performed using the in house developed R package h5CellProfiler (manuscript in preparation). For each reporter hourly intensity levels of the GFP signal, the nuclear Hoechst33342 intensity levels and at 24 h the PI staining were measured at the single cell level. In addition, cell numbers, nuclei size and cell motility were measured.
(§3) GFP intensity cell population means were calculated. In addition, for each plate the cell population mean GFP intensity of the DMSO treated cells was calculated to determine background control values. Per plate, the single cells that had values above the 2X mean, 3X mean were counted resulting in GFP positive fraction measures. For ICAM1, the background control values consisted of DMSO conditions treated with TNFα, and the single cells with values above, as well as below background values were counted. Due to the non-symmetric distribution of ICAM1 cell population GFP intensities, the interquartile range (IQR) was used to count the number of cells 1.5, 2 and 3 times above and below the TNFα IQR control values (Supplemental Fig. 1).
The maximum values over time of the scaled intensity levels and positive GFP fractions were selected for the concentration response curves. These values were fit to a four parameter log-logistic model using the drc package (Ritz et al. [2015]). BMC values were calculated as the concentration at which + 0.25 (and − 0.25 for ICAM1) absolute increase from the initial response values occurred (Fig. 5a).

[2] = ref livertox.nih.gov database; cited from earlier work
[3] = test system: ICAM1-GFP (NF-κB-mediated inflammatory signaling); assay: HepG2 ICAM1-GFP BAC reporter, TNFα-induced, live cell confocal imaging; assay type: cell-based, Human; conditions: HepG2 BAC-GFP, 8 h compound then TNFα 10 ng/mL, 24 h live imaging, 1-100 C-max
Description: Human hepatoma HepG2 cells were acquired from ATCC (clone HB8065). HepG2 Srxn1, DDIT3 (CHOP), CDKN1A (p21) and ICAM1 BAC GFP reporter cell lines were previously established and characterized (Wink et al. [2017]). […] The cell lines were used between passage 5 and 25. For live cell imaging, the cells were seeded in Greiner black μ-clear 384 wells plates, at 8000 cells per well. […] All imaging was similar as previously described^5. […] Directly after TNFα treatment the live cell imaging was started. Quantitative image analysis was performed with CellProfiler version 2.1.1 ([…] et al. [2011]) with an in house developed CellProfiler module implementing the watershed masked algorithm for segmentation (Yan and Verbeek [2012]; Wink et al. [2017]). Image analysis results were stored as HDF5 files. Data analysis, quality control and graphics were performed using the in house developed R package h5CellProfiler (manuscript in preparation). For each reporter hourly intensity levels of the GFP signal, the nuclear Hoechst33342 intensity levels and at 24 h the PI staining were measured at the single cell level. In addition, cell numbers, nuclei size and cell motility were measured. GFP intensity cell population means were calculated. In addition, for each plate the cell population mean GFP intensity of the DMSO treated cells was calculated to determine background control values. Per plate, the single cells that had values above the 2X mean, 3X mean were counted resulting in GFP positive fraction measures. For ICAM1, the background control values consisted of DMSO conditions treated with TNFα, and the single cells with values above, as well as below background values were counted. […] Linear regression was applied with respect to time to quantify treatment effects on a plate-to-plate basis to quantify cell speed, nuclear size, Hoechst nuclear intensity and cell numbers. […] The maximum values over time of the scaled intensity levels and positive GFP fractions were selected for the concentration response curves. These values were fit to a four parameter log-logistic model using the drc package (Ritz et al. [2015]). BMC values were calculated as the concentration at which + 0.25 (and - 0.25 for ICAM1) absolute increase from the initial response values occurred (Fig. 5a).

[4] = C-max obtained from FDA or literature; ref per compound (FDA, Dailymed, Xu, O’Brien, Khetani, Regenthal, Gustafsson, Dawson, Ogutu, Patel, Schmidt, Ravic, Keisu, Hu, Wagner); cited from earlier work
[5] = ref Chen et al. [2016], cited from earlier work; for DILI con. (DILI-concern labeling): FDA DILI labeling; for Hepa. (hepatotoxicity class): FDA labeling in eight classes of hepatotoxicity
[6] = test system: CHOP-GFP (ER stress/UPR response); assay: HepG2 CHOP-GFP BAC reporter, live cell confocal imaging (ER stress/UPR); assay type: cell-based, Human; conditions: for CHOP-GFP reporter response: HepG2 BAC-GFP, 24 h live imaging, 1-100 C-max
[7] = two classes made from the FDA DILI-concern labeling
[8] = test system: p21-GFP (p53-mediated DNA damage-related response); assay: HepG2 p21-GFP BAC reporter, live cell confocal imaging (DNA damage); assay type: cell-based, Human; conditions: 24 h live imaging, 1-100 C-max
Description: as §1
Accumulation of GFP levels, propodium iodide (PI) and Hoechst staining was monitored using a Nikon TiE2000 confocal laser microscope (lasers 540, 488 and 408 nm), equipped with an automated stage and perfect focus system at 37 °C with humidified atmosphere and 5% CO2/air mixture. All imaging was similar as previously described^5. […]
as §2, with “Image analysis results were stored as HDF5 files. Data analysis, quality control and graphics were performed using the in house developed R package h5CellProfiler (manuscript in preparation).” left out
as §3, with “Due to the non-symmetric distribution of ICAM1 cell population GFP intensities, the interquartile range (IQR) was used to count the number of cells 1.5, 2 and 3 times above and below the TNFα IQR control values (Supplemental Fig. 1).” left out

[9] = order of responses in 24 h, 100× C-max printed for nimesulide, rifampicin, oxytetracycline

Compound	Srxn1-GFP reporter response [1]	Metab (metabolic potential) [2]	modulation of TNFα-induced ICAM1-GFP response [3]	Cmax [4] [µM]	DILI con. (DILI-concern labeling) [5]	Hepa. (hepatotoxicity class) [5]	also measured
CC(=O)Nc1ccc(O)cc1 [Acetaminophen]	activation	YES					
Cn1cnc([N+](=O)[O-])c1Sc1ncnc2nc[nH]c12 [Azathioprme, azathioprine]	mild Srxn1-GFP and ICAM1-GFP activation	YES	enhancing; also recorded: mild Srxn1-GFP and ICAM1-GFP activation	0.34	Most-DC	5	
CCc1oc2ccccc2c1C(=O)c1cc(Br)c(O)c(Br)c1 [Benzbromarone]		YES	mild ICAM1-GFP suppression	4.34	Most-DC	8	activation of Srxn1-GFP and/or CHOP-GFP (cluster 3) [1]: activation of Srxn1-GFP and/or CHOP-GFP
Nc1c(CC(=O)O)cccc1C(=O)c1ccc(Br)cc1 [Bromfenac]			mild ICAM1-GFP suppression	18	Most-DC	8	activation of Srxn1-GFP and/or CHOP-GFP (cluster 3) [1]: activation of Srxn1-GFP and/or CHOP-GFP
CN(C)CCCN1c2ccccc2Sc2ccc(Cl)cc21 [Chlorpromazine]		YES		0.94	Less-DC	2	Srxn1-GFP response at the intensity feature level (cell population) [1]: would not have been defined as positive
CN1CCN(C2=Nc3cc(Cl)ccc3Nc3ccccc32)CC1 [Clozapine]		YES	strong ICAM1-GFP suppression	2.44			CHOP-GFP reporter response [6]: CHOP-GFP activation
COc1cc2c(c(OC)c1OC)-c1ccc(OC)c(=O)cc1[C@@H](NC(C)=O)CC2 [Colchicine]	mild Srxn1-GFP and ICAM1-GFP activation	YES	mild Srxn1-GFP and ICAM1-GFP activation	0.016	Amb.-DC	6	Severity class [7]: Non-sev.
O=C1CN(/N=C/c2ccc(-c3ccc([N+](=O)[O-])cc3)o2)C(O)=N1 [Dantrolene]		YES	mild ICAM1-GFP suppression	7.9	Most-DC	8	activation of Srxn1-GFP and/or CHOP-GFP (cluster 3) [1]: activation of Srxn1-GFP and/or CHOP-GFP
O=C(O)Cc1ccccc1Nc1c(Cl)cccc1Cl [Diclofenac]			inhibiting; also recorded: mild ICAM1-GFP suppression	10.1			activation of Srxn1-GFP and/or CHOP-GFP (cluster 3) [1]: activation of Srxn1-GFP and/or CHOP-GFP; Severity class [7]: Sev.
CCOC(=O)/C=C\C(=O)OCC [Diethylmaleate]	strong inducers						
COc1cc([C@@H]2c3cc4c(cc3[C@@H](O[C@@H]3O[C@@H]5CO[C@@H](C)O[C@H]5[C@H](O)[C@H]3O)[C@H]3COC(=O)[C@H]23)OCO4)cc(OC)c1O [Etoposide]		YES					p21-GFP reporter response [8]: strong inducers
CC(=O)N1CCN(c2ccc(OCC3COC(Cn4ccnc4)(c4ccc(Cl)cc4Cl)O3)cc2)CC1 (centres unmarked) [Ketoconazole]				6.59	Most-DC	8	Srxn1-GFP response at the intensity feature level (cell population) [1]: no Srxn1-response; earliest concentration with Srxn1 response, %GFP positive marker ([1]; multiples of C-max): 50 C-max
C[C@](N)(Cc1ccc(O)c(O)c1)C(=O)O [Methyldopa]	increased	YES	inhibited	18.9	Most-DC	8	p21-GFP reporter response [8]: increased
CCc1nn(CCCN2CCN(c3cccc(Cl)c3)CC2)c(=O)n1CCOc1ccccc1 [Nefazodone]		YES	strong ICAM1-GFP suppression	3.95	Most-DC	8	CHOP-GFP reporter response [6]: CHOP-GFP activation
O=C1CN(/N=C/c2ccc([N+](=O)[O-])o2)C(=O)N1 [Nitrofurantoin]		YES	strong ICAM1-GFP suppression	6	Most-DC	8	CHOP-GFP reporter response [6]: CHOP-GFP activation
CN(C)[C@@H]1C(O)=C(C(N)=O)C(=O)[C@@]2(O)C(O)=C3C(=O)c4c(O)cccc4[C@@](C)(O)[C@H]3[C@H](O)[C@@H]12 [Oxytetracycline]				3.26	Amb.-DC	2	Srxn1-GFP response, time dynamics relative to CHOP-GFP [1, 9]: delayed Srxn1-GFP response; CHOP-GFP response, time dynamics relative to Srxn1-GFP [6, 9]: initial CHOP-GFP response
CC1=C(CC(=O)O)c2cc(F)ccc2/C1=C\c1ccc([S+](C)[O-])cc1 (centres unmarked) [Sulindac]	activation	YES		32	Most-DC	8	
C/C=C(/C)C(=O)O[C@H]1C(C)=C2[C@H]([C@@H]1OC(=O)CCCCCCC)[C@@](C)(OC(C)=O)C[C@H](OC(=O)CCC)[C@@]1(O)[C@H]2OC(=O)[C@@]1(C)O [Thapsigargin]							CHOP-GFP reporter response [6]: strong inducers
